Results taken from patent US20100120762A1, “Triazine derivatives as inhibitors of phosphodiesterases” (WYETH, priority 2008, published 2010).
“Also recorded” adds a separate entry of the source.

Tests used:
PDE2A (NM002599) = biological target: T1, PDE2A (NM002599) (Homo sapiens, UniProt O00408); assay: Inhibition of recombinant PDE2A (expressed in baculovirus/SF21-cells); format: biochemical; conditions: recombinant PDE2A, 0.5 μM [3H]-cAMP, 1000 nM cGMP, 37° C., 30 minutes, SPA; read-out: PDE2A IC50
T1 construct: made in house; host or cells: baculovirus / SF21 insect cells
T1 sequence (O00408 whole entry): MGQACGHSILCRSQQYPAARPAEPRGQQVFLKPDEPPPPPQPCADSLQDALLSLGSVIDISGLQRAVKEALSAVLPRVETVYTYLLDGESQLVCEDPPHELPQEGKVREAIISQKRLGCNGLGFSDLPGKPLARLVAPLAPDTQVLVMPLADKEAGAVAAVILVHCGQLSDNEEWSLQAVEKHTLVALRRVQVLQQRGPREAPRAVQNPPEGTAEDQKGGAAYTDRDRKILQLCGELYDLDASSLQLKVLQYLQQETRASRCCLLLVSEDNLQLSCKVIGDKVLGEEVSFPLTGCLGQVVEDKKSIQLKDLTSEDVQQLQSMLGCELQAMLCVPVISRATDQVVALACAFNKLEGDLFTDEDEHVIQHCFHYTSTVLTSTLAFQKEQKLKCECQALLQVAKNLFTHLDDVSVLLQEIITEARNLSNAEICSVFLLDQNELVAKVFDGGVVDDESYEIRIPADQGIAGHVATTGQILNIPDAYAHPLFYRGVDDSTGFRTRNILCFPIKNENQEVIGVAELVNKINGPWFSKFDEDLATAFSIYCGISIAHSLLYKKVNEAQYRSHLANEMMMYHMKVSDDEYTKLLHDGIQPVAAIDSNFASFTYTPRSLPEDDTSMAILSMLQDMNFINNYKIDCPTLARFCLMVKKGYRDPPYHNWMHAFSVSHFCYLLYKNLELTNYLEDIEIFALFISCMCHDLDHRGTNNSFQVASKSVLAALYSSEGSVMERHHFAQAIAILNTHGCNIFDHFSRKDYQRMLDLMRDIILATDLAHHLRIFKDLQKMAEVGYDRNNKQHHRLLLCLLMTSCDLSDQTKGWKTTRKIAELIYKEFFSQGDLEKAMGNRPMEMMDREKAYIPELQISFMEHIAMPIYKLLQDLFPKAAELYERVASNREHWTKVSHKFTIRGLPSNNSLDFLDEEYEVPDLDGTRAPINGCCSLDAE
Procedure, shortened: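 Membrane fraction from SF21 cells, assayed in 50 mM Tris-HCl/5 mM MgCl2 (pH 7.4) with 0.5 μM [3H]-cAMP plus 1000 nM cGMP as stimulator; non-specific activity was measured without cGMP. Reaction ran 30 min at 37° C, was stopped with SPA beads and read by scintillation counting. IC50 came from a Hill-plot 2-parameter model.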

mice [1] = assay: Forced swim test; format: in vivo, mouse; conditions: immobility recorded during last 4 min of 6 min, FIG. 1
Procedure: The forced swim test is an established animal model of depression (Yacoubi et al., 2001). Mice which are forced to swim in a restricted area from which they cannot escape will rapidly cease attempts to escape and adopt a characteristic immobile posture which can be readily identified and timed. Immobility is taken as depression-related behaviour in the animal (Porsolt, 1979). For the test a glass cylinder (height: 20 cm, internal diameter: 15 cm) containing 11 cm water maintained at 23° C. is used. On the day of experiment the mice are forced to swim in the water for 6 min and the immobility time is recorded during the last 4 min of the 6-min-period. Afterwards animals are removed from the water, dried with a paper towel and put under infrared light. […] Results are analyzed by t-test (two groups) or one way analysis of variance (ANOVA) when several groups are compared. Tukey test is used for individual comparison. P<0.05 is regarded as significant.

mice [2] = assay: Light and dark box test; format: in vivo, mouse; conditions: 5 min exploration, FIG. 2
Text: The light and dark box is an established animal model of anxiety (Crawley, 1985). The light and dark box consists of two chambers (each 30×30 cm) that are connected by an opening. There is an aversive chamber with white walls that is brightly lit (600 lux) and a dark chamber with black walls that is only lit by an infrared lamp ([…]). Untreated mice predominately stay in the dark chamber whereas mice treated with an anxiolytic compound go more often into the light chamber resulting in an increased number of transitions between the boxes and increased time in the light box. In addition the distance traveled in the dark chamber is regarded as an activity-related parameter. For the experiment, mice are placed in the light box after the pre-treatment time. Recording time starts when the mouse enters the dark box for the first time. Then the animal has 5 min to explore the two chambers. The behavior of the mice is recorded by video and analyzed by VideoMot 2 (TSE systems, Germany). […] Results are analyzed by t-test (two groups) or one way analysis of variance (ANOVA) when several groups are compared. Tukey test is used for individual comparison. P<0.05 is regarded as significant.

Female Wistar-rats = assay: Novel object recognition test; format: in vivo, rat; conditions: MK-801 0.025 mg/kg intraperitoneally, compound given orally 30 min prior to the test session, FIG. 3
Procedure: The novel object recognition is an animal model of learning and memory (Rutten et al., 2006a, 2006b).
The novel object recognition is performed in glass aquaria (40×60×40 cm) that have 3 black walls and one transparent wall. The floor consists of black, antislip PVC. Objects of different material (iron, plastic, coated hardwood) and forms and similar size are used for the experiment. The objects are positioned 10 cm from the wall and 35-40 cm from each other. Female Wistar-rats are used for this experiment.
One day before the experiment rats have 15 min to habituate to the arena and two objects.
On the first day of the experiment rats are placed into the arena and have five min to explore two equal objects. To disturb the learning process, MK-801 at 0.025 mg/kg is administered intraperitoneally on the first day of the experiment 30 min before the test starts.
On the second day of the experiment (24 h later) rats are again placed into the arena and have 5 min to explore one of the old objects and a novel object. […]
The following parameters are recorded: • 1. the time the rats spent with each object on the first day • 2. the time the rats spent with each object on the second day • 3. percent of time rats spent with the novel object on the second day […]
Results are analyzed by t-test (two groups) or one way analysis of variance (ANOVA) when several groups are compared. […]

PDE10A1 (AB 020593) = biological target: T2, PDE10A1 (AB 020593) (Homo sapiens, UniProt Q9Y233); assay: Inhibition of recombinant PDE10A (baculovirus/SF21 system); format: biochemical; conditions: recombinant cytosolic PDE10A, 0.1 μM [3H]-cAMP, 37° C., 30 minutes, SPA; read-out: PDE10A IC50
T2 construct: made in house; host or cells: baculovirus / SF21 insect cells (gene synthesized by Entelechon GmbH)
T2 sequence (Q9Y233 other isoform, or with tags, fused parts or gaps): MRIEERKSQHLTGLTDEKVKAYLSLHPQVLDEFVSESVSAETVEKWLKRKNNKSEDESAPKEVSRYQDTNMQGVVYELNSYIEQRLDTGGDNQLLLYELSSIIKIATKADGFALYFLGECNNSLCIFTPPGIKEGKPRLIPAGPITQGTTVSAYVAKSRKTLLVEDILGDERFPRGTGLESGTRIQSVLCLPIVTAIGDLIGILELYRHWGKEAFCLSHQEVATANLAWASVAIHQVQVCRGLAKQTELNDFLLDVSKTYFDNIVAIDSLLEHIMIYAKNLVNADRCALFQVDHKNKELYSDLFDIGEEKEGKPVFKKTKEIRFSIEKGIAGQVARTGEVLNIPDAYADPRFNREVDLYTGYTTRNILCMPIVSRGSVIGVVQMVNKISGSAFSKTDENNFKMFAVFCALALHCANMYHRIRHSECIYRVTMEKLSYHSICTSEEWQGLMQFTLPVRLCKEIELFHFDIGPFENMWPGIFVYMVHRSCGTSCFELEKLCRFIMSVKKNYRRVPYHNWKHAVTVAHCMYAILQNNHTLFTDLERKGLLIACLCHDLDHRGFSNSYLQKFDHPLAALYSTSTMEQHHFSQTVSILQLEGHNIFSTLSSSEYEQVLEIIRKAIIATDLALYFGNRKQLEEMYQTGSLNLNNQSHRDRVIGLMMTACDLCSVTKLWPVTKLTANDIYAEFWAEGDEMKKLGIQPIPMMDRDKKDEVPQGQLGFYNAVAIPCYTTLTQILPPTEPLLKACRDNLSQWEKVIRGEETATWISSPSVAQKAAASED
Procedure, shortened: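 Cytosolic PDE10A1 expressed in SF21 cells via baculovirus, incubated with 0.1 μM [3H]-cAMP in 50 mM Tris-HCl/5 mM MgCl2, pH 7.4, 30 min at 37 °C. SPA-bead scintillation read-out, with enzyme-free wells as background. IC50 from Hill plot, 2-parameter model.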

| Compound | IC50 (PDE2A (NM002599)) [nM] | effect in the forced swim test (antidepressant; immobility time) (mice [1]) | effect in the light and dark box test (anxiolytic) (mice [2]) | effect in the novel object recognition test (cognition enhancing) (Female Wistar-rats) | IC50 (PDE10A1 (AB 020593)) [nM] | melting point [°C] |
| --- | --- | --- | --- | --- | --- | --- |
| COc1ccc2nnc3c(C)nc(-c4ccccc4Cl)n3c2n1 [Example 6, 1-(2-chlorophenyl)-8-methoxy-3-methyl-imidazo[5,1-c]-pyrido[2,3-e][1,2,4]triazine] | 3.83 | antidepressant effect; also recorded: significant effect | anxiolytic effect; also recorded: significant effect | significant effect | 20.9 | – |
| CCC(C)c1nc(C)c2nnc3ccc(OC)nc3n12 (centres unmarked) [Example 12, 8-methoxy-3-methyl-1-(sec-butyl)-imidazo[5,1-c]-pyrido[2,3-e][1,2,4]triazine] | 136 | – | – | – | 94.8 | 157 to 159 |
| COc1ccc2nnc3c(C)nc(CC(C)C)n3c2n1 [Example 13, 8-methoxy-3-methyl-1-(iso-butyl)-imidazo[5,1-c]-pyrido[2,3-e][1,2,4]triazine] | 30.3 | – | – | – | 12.9 | 143.5 to 145 |
| Cc1nc(-c2cc(Cl)ccc2Cl)n2c1nnc1ccc(Cl)nc12 [Example 118, 8-chloro-1-(2,5-dichloro-phenyl)-3-methyl-imidazo[5,1-c]pyrido[2,3-e][1,2,4]triazine] | 11.8 | – | – | – | 228 | 151 to 154 |
| Cc1cn(-c2ccc3nnc4c(C)nc(-c5cc(Cl)ccc5Cl)n4c3n2)c(-c2cc(Cl)ccc2Cl)n1 [Example 119, 1-(2,5-dichloro-phenyl)-8-[2-(2,5-dichloro-phenyl)-4-methyl-imidazol-1-yl]-3-methyl-imidazo[5,1-c]pyrido[2,3-e][1,2,4]triazine] | 41 | – | – | – | 240 | 130 |
| COc1ccc2nnc3c(C4CC4)nc(-c4cccc(Cl)c4)n3c2n1 [Example 121, 1-(3-Chloro-phenyl)-3-cyclopropyl-8-methoxy-imidazo[5,1-c]pyrido[2,3-e][1,2,4]triazine] | 136 | – | – | – | > 500 | 155 |
| COc1ccc2nnc3c(C4CC4)nc(-c4ccccn4)n3c2n1 [Example 122, 3-Cyclopropyl-8-methoxy-1-pyridin-2-yl-imidazo[5,1-c]pyrido[2,3-e][1,2,4]triazine] | 5190 | – | – | – | 8100 | 162 to 164 |
| Cc1nc(-c2ccccc2Cl)n2c1nnc1ccc(N3CCOCC3)nc12 [Example 123, 1-(2-Chloro-phenyl)-3-methyl-8-morpholin-4-yl-imidazo[5,1-c]pyrido[2,3-e][1,2,4]triazine] | 5.13 | – | – | – | 15.7 | 251 to 254 |
| COc1ccc2nnc3c(-c4ccccc4)ncn3c2n1 [Example 124, 8-Methoxy-3-phenyl-imidazo[5,1-c]pyrido[2,3-e][1,2,4]triazine] | > 500 | – | – | – | > 500 | 225 to 227 |
| c1ccc(-c2ncn3c2nnc2cccnc23)cc1 [Example 125, 3-phenyl-imidazo[5,1-c]pyrido[2,3-e][1,2,4]triazine] | > 1000 | – | – | – | > 1000 | 225 to 227 |
